System: psoriasis
Assay: Clinical study, efficacy of topical cream in psoriasis patients
Format: in vivo, human
Conditions: patient; previously used antipsoriasis drugs
Description: The patient started to use a cream according to Example 1 two to four times daily. […] The patient stopped using the spermine cream after about six months.
A patient with psoriasis (knees, elbows and scalp) started to use a cream according to Example 1 daily.
A patient with psoriasis (scalp, auditory canal, hands, elbows, partly in the face and body (psoriasis grade medium on 15% of the body)).

SMILES: CN(Cc1cnc2nc(N)nc(N)c2n1)c1ccc(C(=O)N[C@@H](CCC(=O)O)C(=O)O)cc1 [methotrexate]
- effectiveness of previous treatment: only effective treatment

From patent US20100047360A1, “Use Of Polyamines In The Treatment Of Psoriasis” (Bioforskining Pharma AS, priority 2006, published 2010)
